One assay deals with T1, mouse TREK-1 (mTREK-1t) (Mus musculus, UniProt P97438).
T1 construct: (mTREK-1t) by Capital Biosciences (Rockville, Md.)
T1 sequence (P97438 with tags, fused parts or gaps limits assumed): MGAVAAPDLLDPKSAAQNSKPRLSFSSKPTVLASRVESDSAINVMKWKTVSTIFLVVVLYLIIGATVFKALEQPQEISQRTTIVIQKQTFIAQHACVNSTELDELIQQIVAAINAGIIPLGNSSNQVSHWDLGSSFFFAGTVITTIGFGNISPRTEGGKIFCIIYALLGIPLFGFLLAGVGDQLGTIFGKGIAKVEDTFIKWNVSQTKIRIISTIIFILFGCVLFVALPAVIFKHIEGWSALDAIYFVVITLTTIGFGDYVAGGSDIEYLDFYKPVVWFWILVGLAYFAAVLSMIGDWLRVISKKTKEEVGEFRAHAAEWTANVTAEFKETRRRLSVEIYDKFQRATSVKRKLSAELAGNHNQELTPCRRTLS
The assay is described as follows: FLIPR membrane potential assay in HEK-293 cells stably transfected with mTREK-1t. It counts as cell-based. The following applies: for activation at 0.0005 %: HEK293, Sample Conc. 0.0005%; for activation at 0.0005 % / activation at 0.001 % / activation at 0.0021 % / activation at 0.0042 % / activation at 0.0083 % / activation at 0.0167 % / activation at 0.033 %: read-out: Activity Level (percentage of activity relative to 100% with 50 mM potassium nitrate); for activation at 0.001 %: HEK293, Sample Conc. 0.0010%; for activation at 0.0021 %: HEK293, Sample Conc. 0.0021%; for activation at 0.0042 %: HEK293, Sample Conc. 0.0042%; for activation at 0.0083 %: HEK293, Sample Conc. 0.0083%; for activation at 0.0167 %: HEK293, Sample Conc. 0.0167%; for activation at 0.033 %: HEK293, Sample Conc. 0.0330%.

The conditions of assay [1]: concentration level where the cooling effect can be clearly recognized; cited from earlier work.
Setting [2] is: sample concentration 50 μM, relative to 50 mM potassium nitrate.
[3] abbreviates: sample concentration 100 μM, relative to 50 mM potassium nitrate.
Setting [4] is: sample concentration 200 μM, relative to 50 mM potassium nitrate.

Where a name gives a salt, the structure may show the parent alone. Read-outs that look alike come from different tables or passages of the source.

Consider `CCCOC(=O)CCCCC(=O)OCCC` [Dipropyl Adipate], for which, at mouse TREK-1 (mTREK-1t), the activation at 0.0005 % came out at 0%, the activation at 0.001 % came to 0%, the activation at 0.0021 % was determined as 0% and the activation at 0.0042 % came out at 0%. On mouse TREK-1 (mTREK-1t), the activation at 0.0083 % turned out to be 0.51%, the activation at 0.0167 % is 2.66% and the activation at 0.033 % worked out at 12.2%.

Take `CC(C)[C@@H]1CC[C@@H](C)C[C@H]1O` [L- Menthol]: the cooling threshold entry in assay [1] was “about 800 ppb”.

Regarding `COC(=O)c1ccccc1O` [Methyl Salicylate], the “percentage of TREK-1 activity relative to potassium nitrate” value was found to be 2.35% at mouse TREK-1 (mTREK-1t) (Sample Concentration 0.0005%); 2.33% on mouse TREK-1 (mTREK-1t) (Sample Concentration 0.0010%); 2.66% at mouse TREK-1 (mTREK-1t) (Sample Concentration 0.0021%); 4.94% at mouse TREK-1 (mTREK-1t) (Sample Concentration 0.0042%); 8.31% at mouse TREK-1 (mTREK-1t) (Sample Concentration 0.0083%); 17.4% on mouse TREK-1 (mTREK-1t) (Sample Concentration 0.0167%). The “percentage of TREK-1 activity relative to potassium nitrate” value at mouse TREK-1 (mTREK-1t) (Sample Concentration […]) is 29.43%.

With `O=[N+]([O-])[O-].[K+]` [Potassium Nitrate, reference compound], at mouse TREK-1 (mTREK-1t), the “Activity Level (percentage of activity relative to 100% with 50 mM potassium nitrate)” value is recorded as 100%, the “Fluorescence per Sample concentration (percent activity relative to potassium nitrate)” value came out at 100% and the “percentage of TREK-1 activity relative to potassium nitrate” value turned out to be 100%.

Consider `CC(C)[C@@H]1CC[C@@H](C)C[C@@H]1O` [Sample 1-neomenthol, 1-neomenthol], for which the cooling threshold entry in assay [1] is recorded as “about 3,000 ppb”.

`Cc1ccc(C(C)C)c(O)c1` [Thymol]: the “percentage of TREK-1 activity relative to potassium nitrate” value was determined as 4.57% at mouse TREK-1 (mTREK-1t) (Sample Concentration 0.0005%); 4.82% on mouse TREK-1 (mTREK-1t) (Sample Concentration 0.0010%); 3.86% at mouse TREK-1 (mTREK-1t) (Sample Concentration 0.0021%); 4.09% at mouse TREK-1 (mTREK-1t) (Sample Concentration 0.0042%); 6.73% at mouse TREK-1 (mTREK-1t) (Sample Concentration 0.0083%); 31.4% on mouse TREK-1 (mTREK-1t) (Sample Concentration 0.0167%). For the same compound, the “percentage of TREK-1 activity relative to potassium nitrate” value at mouse TREK-1 (mTREK-1t) (Sample Concentration […]) worked out at 65.22%.

With `CCOC(=O)CC(O)(CC(=O)OCC)C(=O)OCC` [Triethyl Citrate], on mouse TREK-1 (mTREK-1t), the activation at 0.0005 % turned out to be 4.06%, the activation at 0.001 % turned out to be 1.7%, the activation at 0.0021 % came out at 2.98% and the activation at 0.0042 % was 3.67%. Moreover, on mouse TREK-1 (mTREK-1t), the activation at 0.0083 % turned out to be 6.17%, the activation at 0.0167 % came to 13.4% and the activation at 0.033 % was 17.2%.

In the case of `CC(C)[C@@H]1CC[C@@H](C)C[C@@H]1O` [d-neomenthol], the cooling threshold entry in assay [1] is “about 25,000 ppb”.

Consider `CCCCCCCCC1CCC(=O)O1` (stereo not drawn) [gamma-Dodecalactone], for which the results for the “Fluorescence per Sample concentration (percent activity relative to potassium nitrate)” value on mouse TREK-1 (mTREK-1t) (setting [2]), on mouse TREK-1 (mTREK-1t) (setting [3]) and at mouse TREK-1 (mTREK-1t) (setting [4]) were 1.77%, 3.41% and 18.74%, respectively.

On to `CCCCCCCCCCC1CCC(=O)O1` (stereo not drawn) [gamma-Tetradecalactone], for which the “Fluorescence per Sample concentration (percent activity relative to potassium nitrate)” value at mouse TREK-1 (mTREK-1t) (setting [2]) worked out at 3.21%; at mouse TREK-1 (mTREK-1t) (setting [3]), 3.54%; at mouse TREK-1 (mTREK-1t) (setting [4]), 9.82%; at mouse TREK-1 (mTREK-1t) (sample concentration 400 μM, relative to 50 mM potassium nitrate), 15.89%.

With L-Carvone, the “percentage of TREK-1 activity relative to potassium nitrate” value amounted to 1.85% on mouse TREK-1 (mTREK-1t) (Sample Concentration 0.0005%); 0.97% at mouse TREK-1 (mTREK-1t) (Sample Concentration 0.0010%); 2.7% at mouse TREK-1 (mTREK-1t) (Sample Concentration 0.0021%); 2.03% on mouse TREK-1 (mTREK-1t) (Sample Concentration 0.0042%); 9.51% on mouse TREK-1 (mTREK-1t) (Sample Concentration 0.0083%); 24.1% at mouse TREK-1 (mTREK-1t) (Sample Concentration 0.0167%). At mouse TREK-1 (mTREK-1t) (Sample Concentration […]), the “percentage of TREK-1 activity relative to potassium nitrate” value was 98.65%.

These data come from US9884130B2, “Compositions for delivery of oral comfort sensations” (The Procter & Gamble Company, priority 2013, dated 2018).
